# Source: patent US10202378B2, “Therapeutic compounds and uses thereof” (GENENTECH, INC., priority 2015, dated 2019)
# How the values were obtained:
# TAF1-BD2 = TAF1-BD2 (Homo sapiens, UniProt P21675); assay: TAF1-BD2 TR-FRET Binding Assay; details: read-out: TAF1-BD2 HTRF IC50
# Protocol: IC50 Measurements for Inhibitors Using TAF1-BD2 TR-FRET Binding Assay
# His/Flag epitope tagged TAF1-BD21504-1635 was cloned, expressed, and purified to homogeneity. TAF1-BD2 binding and inhibition was assessed by monitoring the engagement of a biotinylated small molecule compound 1000 with the target using the TR-FRET assay technology (Perkin-Elmer). Specifically, in a 384 well ProxiPlate, TAF1-BD2 (0.012 uM final) in 50 mM HEPES (pH 7.5; final), 50 mM NaCl (final), 1 mM TCEP (final), 0.1 mg/mL BSA (final), and 0.069 mM Brij-35 (final) was added either in the presence of DMSO (final 0.2% DMSO) or compound dilution series in DMSO. After a 10 minute incubation at room temperature, biotin-ligand (0.04 uM final) was added. After 10 minutes incubation at room temperature, a mixture Eu-W1024 Anti-6×His antibody (Perkin Elmer AD0110) and SureLight™ Streptavidin-Allophycocyanin (SA-APC, Perkin Elmer CR130-100) were added to a final concentration of 0.2 nM antibody and 0.025 uM SA-APC, respectively. After forty minutes of equilibration at room temperature, the plates were read on an Envision instrument and IC50s calculated using a four parameter logistic model (XLFIT).
# TAF1-BD1 = TAF1-BD1 (Homo sapiens, UniProt P21675); assay: TAF1-BD1 TR-FRET Binding Assay; details: read-out: TAF1-BD1 HTRF IC50
# Protocol: IC50 Measurements for Inhibitors Using TAF1-BD1 TR-FRET Binding Assay
# His/Flag epitope tagged TAF1-BD11381-1497 was cloned, expressed, and purified to homogeneity. TAF1-BD binding and inhibition was assessed by monitoring the engagement of a biotinylated small molecule compound 1000 with the target using the TR-FRET assay technology (Perkin-Elmer). Specifically, in a 384 well ProxiPlate, TAF1-BDI (0.08 uM final) in 50 mM HEPES (pH 7.5; final), 50 mM NaCl (final), 1 mM TCEP (final), 0.1 mg/mL BSA (final), and 0.069 mM Brij-35 (final) was added either in the presence of DMSO (final 0.2% DMSO) or compound dilution series in DMSO. After a 10 minute incubation at room temperature, biotin-ligand (0.08 uM final) was added. After 10 minutes incubation at room temperature, a mixture Eu-W1024 Anti-6×His antibody (Perkin Elmer ADO 110) and SureLight™ Streptavidin-Allophycocyanin (SA-APC, Perkin Elmer CR130-100) were added to final concentrations of 0.2 nM antibody and 0.05 uM SA-APC, respectively. After forty minutes of equilibration at room temperature, the plates were read on an Envision instrument and IC50s calculated using a four parameter logistic model (XLFIT).
smiles,measurement,setting,value
"C=CCCn1cc(C#CC(C)(C)CO)c2c(C(=O)OCC)c(C)[nH]c2c1=O [Example 47, ethyl 6-but-3-enyl-4-(4-hydroxy-3,3-dimethyl-but-1-ynyl)-2-methyl-7-oxo-1H-pyrrolo[2,3-c]pyridine-3-carboxylate]",IC50,TAF1-BD2,368 nM
same,IC50,TAF1-BD1,4900 nM
"C=CCCn1cc(C#CC(C)(C)C(N)=O)c2c(C(=O)OCC)c(C)[nH]c2c1=O [Example 48, ethyl 4-(4-amino-3,3-dimethyl-4-oxo-but-1-ynyl)-6-but-3-enyl-2-methyl-7-oxo-1H-pyrrolo[2,3-c]pyridine-3-carboxylate]",IC50,TAF1-BD2,312 nM
same,IC50,TAF1-BD1,1280 nM
"C=CCCn1cc(C#CC(C)(C)O)c2c(C(=O)OCC)c(C)[nH]c2c1=O [Example 49, ethyl 6-but-3-enyl-4-(3-hydroxy-3-methyl-but-1-ynyl)-2-methyl-7-oxo-1H-pyrrolo[2,3-c]pyridine-3-carboxylate]",IC50,TAF1-BD2,116 nM
same,IC50,TAF1-BD1,2850 nM
"CCOC(=O)c1c(C)[nH]c2c(=O)n(CC)cc(C#CC(C)(C)O)c12 [Example 50, ethyl 6-ethyl-4-(3-hydroxy-3-methyl-but-1-ynyl)-2-methyl-7-oxo-1H-pyrrolo[2,3-c]pyridine-3-carboxylate]",IC50,TAF1-BD2,450 nM
same,IC50,TAF1-BD1,9870 nM
"C=CCn1cc(C#CC(C)(C)O)c2c(C(=O)OCC)c(C)[nH]c2c1=O [Example 51, ethyl 6-allyl-4-(3-hydroxy-3-methyl-but-1-ynyl)-2-methyl-7-oxo-1H-pyrrolo[2,3-c]pyridine-3-carboxylate]",IC50,TAF1-BD2,227 nM
same,IC50,TAF1-BD1,7200 nM
"CCOC(=O)c1c[nH]c2c(=O)n(C)cc(C#CC(C)(C)O)c12 [Example 53, ethyl 4-(3-hydroxy-3-methyl-but-1-ynyl)-6-methyl-7-oxo-1H-pyrrolo[2,3-c]pyridine-3-carboxylate]",IC50,TAF1-BD2,95.2 nM
same,IC50,TAF1-BD1,859 nM
"Cc1cc([C@](C)(O)C#Cc2cn(C)c(=O)c3[nH]cc(C(=O)OCC(C)C)c23)no1 [Example 54, isobutyl 4-[(3R)-3-hydroxy-3-(5-methylisoxazol-3-yl)but-1-ynyl]-6-methyl-7-oxo-1H-pyrrolo[2,3-c]pyridine-3-carboxylate]",IC50,TAF1-BD2,122 nM
same,IC50,TAF1-BD1,179 nM
"CCOC(=O)c1c(C)[nH]c2c(=O)n(C)cc(C#Cc3ccccc3)c12 [Example 55, ethyl 2,6-dimethyl-7-oxo-4-(2-phenylethynyl)-1H-pyrrolo[2,3-c]pyridine-3-carboxylate]",IC50,TAF1-BD2,74 nM
same,IC50,TAF1-BD1,457 nM
"CCOC(=O)c1c(C)[nH]c2c(=O)n(C)cc(C#Cc3cncn3C)c12 [Example 56, ethyl 2,6-dimethyl-4-[2-(3-methylimidazol-4-yl)ethynyl]-7-oxo-1H-pyrrolo[2,3-c]pyridine-3-carboxylate]",IC50,TAF1-BD2,129 nM
same,IC50,TAF1-BD1,337 nM
"CCOC(=O)c1c(C)[nH]c2c(=O)n(C)cc(C#Cc3ccccc3OC(F)(F)F)c12 [Example 57, ethyl 2,6-dimethyl-7-oxo-4-[2-[2-(trifluoromethoxy)phenyl]ethynyl]-1H-pyrrolo[2,3-c]pyridine-3-carboxylate]",IC50,TAF1-BD2,59.6 nM
same,IC50,TAF1-BD1,> 20000 nM
"CCOC(=O)c1c(C)[nH]c2c(=O)n(C)cc(C#Cc3ccc(OC)cc3)c12 [Example 58, ethyl 4-[2-(4-methoxyphenyl)ethynyl]-2,6-dimethyl-7-oxo-1H-pyrrolo[2,3-c]pyridine-3-carboxylate]",IC50,TAF1-BD2,38.4 nM
same,IC50,TAF1-BD1,315 nM
"CCOC(=O)c1c(C)[nH]c2c(=O)n(C)cc(C#Cc3ccccc3F)c12 [Example 59, ethyl 4-[2-(2-fluorophenyl)ethynyl]-2,6-dimethyl-7-oxo-1H-pyrrolo[2,3-c]pyridine-3-carboxylate]",IC50,TAF1-BD2,56.2 nM
same,IC50,TAF1-BD1,> 2220 nM
"CCOC(=O)c1c(C)[nH]c2c(=O)n(C)cc(C#Cc3cccc(N)c3)c12 [Example 60, ethyl 4-[2-(3-aminophenyl)ethynyl]-2,6-dimethyl-7-oxo-1H-pyrrolo[2,3-c]pyridine-3-carboxylate]",IC50,TAF1-BD2,38.1 nM
same,IC50,TAF1-BD1,120 nM
"CCOC(=O)c1c(C)[nH]c2c(=O)n(C)cc(C#Cc3cccnc3)c12 [Example 61, ethyl 2,6-dimethyl-7-oxo-4-[2-(3-pyridyl)ethynyl]-1H-pyrrolo[2,3-c]pyridine-3-carboxylate]",IC50,TAF1-BD2,47.7 nM
same,IC50,TAF1-BD1,292 nM
"CCOC(=O)c1c(C)[nH]c2c(=O)n(C)cc(C#Cc3ccsc3)c12 [Example 62, ethyl 2,6-dimethyl-7-oxo-4-[2-(3-thienyl)ethynyl]-1H-pyrrolo[2,3-c]pyridine-3-carboxylate]",IC50,TAF1-BD2,57.9 nM
same,IC50,TAF1-BD1,402 nM
"CCOC(=O)c1c(C)[nH]c2c(=O)n(C)cc(C#Cc3cccc(O)c3)c12 [Example 63, ethyl 4-[2-(3-hydroxyphenyl)ethynyl]-2,6-dimethyl-7-oxo-1H-pyrrolo[2,3-c]pyridine-3-carboxylate]",IC50,TAF1-BD2,38.5 nM
same,IC50,TAF1-BD1,195 nM
"CCOC(=O)c1c(C)[nH]c2c(=O)n(C)cc(C#C[C@@](C)(O)c3nnc(C)o3)c12 [Example 64, ethyl 4-[(3R)-3-hydroxy-3-(5-methyl-1,3,4-oxadiazol-2-yl)but-1-ynyl]-2,6-dimethyl-7-oxo-1H-pyrrolo[2,3-c]pyridine-3-carboxylate]",IC50,TAF1-BD2,160 nM
same,IC50,TAF1-BD1,502 nM
"CCOC(=O)c1c(C)[nH]c2c(=O)n(C)cc(C#C[C@@](C)(O)c3cc(C)no3)c12 [Example 69, ethyl 4-[(3R)-3-hydroxy-3-(3-methylisoxazol-5-yl)but-1-ynyl]-2,6-dimethyl-7-oxo-1H-pyrrolo[2,3-c]pyridine-3-carboxylate]",IC50,TAF1-BD2,61 nM
same,IC50,TAF1-BD1,210 nM
"CCOC(=O)c1c(C)[nH]c2c(=O)n(C)cc(C#CC(C)(O)C(C)C)c12 (stereo not drawn) [Example 70, ethyl 4-(3-hydroxy-3,4-dimethyl-pent-1-ynyl)-2,6-dimethyl-7-oxo-1H-pyrrolo[2,3-c]pyridine-3-carboxylate]",IC50,TAF1-BD2,82.3 nM
same,IC50,TAF1-BD1,515 nM
"C=CCCn1cc(C#C[C@](C)(O)c2cc(C)on2)c2c(C(=O)OCC)c(C)[nH]c2c1=O [Example 71, ethyl 6-but-3-enyl-4-[(3S)-3-hydroxy-3-(5-methylisoxazol-3-yl)but-1-ynyl]-2-methyl-7-oxo-1H-pyrrolo[2,3-c]pyridine-3-carboxylate]",IC50,TAF1-BD2,190 nM
same,IC50,TAF1-BD1,2510 nM
"C=CCCn1cc(C#CC(C)(O)CC#N)c2c(C(=O)OCC)c(C)[nH]c2c1=O (stereo not drawn) [Example 72, ethyl 6-but-3-enyl-4-(4-cyano-3-hydroxy-3-methyl-but-1-ynyl)-2-methyl-7-oxo-1H-pyrrolo[2,3-c]pyridine-3-carboxylate]",IC50,TAF1-BD2,181 nM
same,IC50,TAF1-BD1,> 20000 nM
"CCOC(=O)c1c(C)[nH]c2c(=O)n(C)cc(C#CC(O)(c3ccccc3)C(F)(F)F)c12 (stereo not drawn) [Example 73, ethyl 2,6-dimethyl-7-oxo-4-(4,4,4-trifluoro-3-hydroxy-3-phenyl-but-1-ynyl)-1H-pyrrolo[2,3-c]pyridine-3-carboxylate]",IC50,TAF1-BD2,69.5 nM
same,IC50,TAF1-BD1,287 nM
"CCOC(=O)c1c(C)[nH]c2c(=O)n(C)cc(C#CC3(O)CCN(C)C3=O)c12 (stereo not drawn) [Example 74, ethyl 4-[2-(3-hydroxy-1-methyl-2-oxo-pyrrolidin-3-yl)ethynyl]-2,6-dimethyl-7-oxo-1H-pyrrolo[2,3-c]pyridine-3-carboxylate]",IC50,TAF1-BD2,209 nM
same,IC50,TAF1-BD1,2040 nM
"CCOC(=O)c1c(C)[nH]c2c(=O)n(C)cc(C#CC(O)(CC)c3ccccc3)c12 (stereo not drawn) [Example 75, ethyl 4-(3-hydroxy-3-phenyl-pent-1-ynyl)-2,6-dimethyl-7-oxo-1H-pyrrolo[2,3-c]pyridine-3-carboxylate]",IC50,TAF1-BD2,76.5 nM
same,IC50,TAF1-BD1,427 nM
"CCOC(=O)c1c(C)[nH]c2c(=O)n(C)cc(C#CC(C)(C)C)c12 [Example 76, ethyl 4-(3,3-dimethylbut-1-ynyl)-2,6-dimethyl-7-oxo-1H-pyrrolo[2,3-c]pyridine-3-carboxylate]",IC50,TAF1-BD2,777 nM
same,IC50,TAF1-BD1,561 nM
"CCOC(=O)c1c(C)[nH]c2c(=O)n(C)cc(C#CC(C)(C)O)c12 [Example 78, ethyl 4-(3-hydroxy-3-methyl-but-1-ynyl)-2,6-dimethyl-7-oxo-1H-pyrrolo[2,3-c]pyridine-3-carboxylate]",IC50,TAF1-BD2,38.5 nM
same,IC50,TAF1-BD1,616 nM
"CCOC(=O)c1c(C)[nH]c2c(=O)n(C)cc(C#CC3CCCCC3)c12 [Example 79, ethyl 4-(2-cyclohexylethynyl)-2,6-dimethyl-7-oxo-1H-pyrrolo[2,3-c]pyridine-3-carboxylate]",IC50,TAF1-BD2,584 nM
same,IC50,TAF1-BD1,1330 nM
